Laboratory results as given in patent publication US10316017B2, “COT modulators and methods of use thereof” (Gilead Sciences, Inc., priority 2015, dated 2019).

Key:
[1] = biological target: T1, human Cot catalytic domain (30-397 amino acids) (Homo sapiens, UniProt P41279); assay: High Throughput Cot Biochemical Assay (KinEASE TR-FRET); settings: Cot biochemical HTRF (KinEASE TR-FRET) assay; read-out: IC50 HTRF
T1 construct: Purified recombinant human Cot catalytic domain (30-397 amino acids) was purchased from Cama Biosciences; purchased Cama Biosciences (so in the source)
T1 sequence (P41279 30-397): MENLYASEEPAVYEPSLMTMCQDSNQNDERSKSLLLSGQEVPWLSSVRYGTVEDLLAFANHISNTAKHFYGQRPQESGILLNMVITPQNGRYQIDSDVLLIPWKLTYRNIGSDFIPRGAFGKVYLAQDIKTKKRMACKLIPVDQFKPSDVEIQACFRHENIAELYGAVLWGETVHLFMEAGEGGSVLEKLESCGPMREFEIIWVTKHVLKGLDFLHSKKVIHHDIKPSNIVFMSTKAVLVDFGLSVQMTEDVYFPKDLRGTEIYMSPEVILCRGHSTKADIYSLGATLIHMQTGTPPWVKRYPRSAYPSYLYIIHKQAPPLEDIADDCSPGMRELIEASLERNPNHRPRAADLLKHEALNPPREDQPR
Procedure, shortened: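 Recombinant human Cot catalytic domain (aa 30-397), 5 nM, with 1 μM STK3 peptide and 400 μM ATP in MOPS pH 7.0 buffer with MgOAc, DTT, BSA, NP-40, glycerol, 0.1% DMSO. Phosphorylated XL665-peptide detected by Eu-[…] antibody TR-FRET.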

[2] = system: TNFα production in LPS-stimulated human monocytes; assay: Cot Monocyte TNFα Cell Based Assay; settings: Homo sapiens, Monocyte, TNFα in LPS-stimulated human monocytes; read-out: EC50 TNF
Procedure, shortened: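 Human monocytes (5,000 cells/well) pretreated with compound for 1 hour at 37° C (0.5% DMSO), then stimulated with 50 pg/ml LPS for 4 hours. Total TNFα measured by TR-FRET after overnight antibody incubation at room temp, expressed as percent of control between unstimulated and stimulated cells.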

Row | IC50 [1] [nM] | EC50 [2] [nM] | Structure (SMILES)
1 | 41 | 375 | N#Cc1cnc2c(Cl)cc(N[C@@H](c3ccccc3)c3cn(CC(O)C(F)(F)F)nn3)cc2c1Nc1ccc(F)c(Cl)c1 (stereo partly drawn) [Example 605, 8-chloro-4-((3-chloro-4-fluorophenyl)amino)-6-(((1S)-phenyl(1-(3,3,3-trifluoro-2-hydroxypropyl)-1H-1,2,3-triazol-4-yl)methyl)amino)quinoline-3-carbonitrile]
2 | 2 | 348 | CN(C)C(=O)c1cccc([C@H](Nc2cc(Cl)c3ncc(C#N)c(Nc4cccc(Cl)c4F)c3c2)c2c[nH]nn2)c1 [Example 606, (S)-3-(((8-chloro-4-((3-chloro-2-fluorophenyl)amino)-3-cyanoquinolin-6-yl)amino)(1H-1,2,3-triazol-4-yl)methyl)-N,N-dimethylbenzamide]
3 | 2 | 198 | CC(C)n1cc([C@@H](Nc2cc(Cl)c3ncc(C#N)c(Nc4cccc(Cl)c4F)c3c2)c2cccc(C(=O)N(C)C)c2)nn1 [Example 607, (S)-3-(((8-chloro-4-((3-chloro-2-fluorophenyl)amino)-3-cyanoquinolin-6-yl)amino)(1-isopropyl-1H-1,2,3-triazol-4-yl)methyl)-N,N-dimethylbenzamide]
4 | 1 | 41 | CN(C)C(=O)c1cccc([C@H](Nc2cc(Cl)c3ncc(C#N)c(Nc4cccc(Cl)c4F)c3c2)c2cn(C3CCN(C(C)(C)C)CC3)nn2)c1 [Example 608, (S)-3-((1-(1-(tert-butyl)piperidin-4-yl)-1H-1,2,3-triazol-4-yl)((8-chloro-4-((3-chloro-2-fluorophenyl)amino)-3-cyanoquinolin-6-yl)amino)methyl)-N,N-dimethylbenzamide]
5 | 7 | 384 | N#Cc1cnc2c(Cl)cc(N[C@@H](c3ccccc3)c3cn(C4CC4)nn3)cc2c1Nc1ccc(F)c(Cl)c1 [Example 609, (S)-8-chloro-4-((3-chloro-4-fluorophenyl)amino)-6-(((1-cyclopropyl-1H-1,2,3-triazol-4-yl)(phenyl)methyl)amino) quinoline-3-carbonitrile]
6 | 14 | 337 | CC(C)(O)Cn1cc([C@@H](Nc2cc(Cl)c3ncc(C#N)c(Nc4ccc(F)c(Cl)c4)c3c2)c2ccccc2)nn1 [Example 610, (S)-8-chloro-4-((3-chloro-4-fluorophenyl)amino)-6-(((1-(2-hydroxy-2-methylpropyl)-1H-1,2,3-triazol-4-yl)(phenyl)methyl)amino) quinoline-3-carbonitrile]
7 | 51 | 369 | CC(C)(C)N1CCC(n2cc([C@@H](Nc3cc(Cl)c4ncc(C#N)c(Nc5ccsc5Cl)c4c3)c3ccccc3)nn2)CC1 [Example 611, (S)-6-(((1-(1-(tert-butyl)piperidin-4-yl)-1H-1,2,3-triazol-4-yl)(phenyl)methyl)amino)-8-chloro-4-((2-chlorothiophen-3-yl)amino)quinoline-3-carbonitrile]
8 | 84 | 2020 | CC(C)(C)N1CCC(n2cc([C@@H](Nc3cc(Cl)c4ncc(C#N)c(Nc5cscc5Cl)c4c3)c3ccccc3)nn2)CC1 [Example 612, (S)-6-(((1-(1-(tert-butyl)piperidin-4-yl)-1H-1,2,3-triazol-4-yl)(phenyl)methyl)amino)-8-chloro-4-((4-chlorothiophen-3-yl)amino)quinoline-3-carbonitrile]
9 | 41 | 708 | N#Cc1cnc2c(Cl)cc(N[C@@H](c3ccccc3)c3c[nH]nn3)cc2c1Nc1cccc(Cl)c1F [Example 613, (S)-8-chloro-4-((3-chloro-2-fluorophenyl)amino)-6-((phenyl(1H-1,2,3-triazol-4-yl)methyl)amino)quinoline-3-carbonitrile]
10 | 123 | 1110 | N#Cc1cnc2c(Cl)cc(N[C@@H](c3ccc(Cl)cc3)c3c[nH]nn3)cc2c1Nc1ccc(O)c(Cl)c1 [Example 614, (S)-8-chloro-4-((3-chloro-4-hydroxyphenyl)amino)-6-(((4-chlorophenyl)(1H-1,2,3-triazol-4-yl)methyl)amino)quinoline-3-carbonitrile]
11 | 141 | 719 | CC1(Nc2c(C#N)cnc3c(Cl)cc(N[C@@H](c4ccccc4)c4cn(C5CCN(C(C)(C)C)CC5)nn4)cc23)CCCCCC1 [Example 615, (S)-6-(((1-(1-(tert-butyl)piperidin-4-yl)-1H-1,2,3-4-yl)(phenyl)methyl)amino)-8-chloro-4-((1-methylcycloheptyl)amino) quinoline-3-carbonitrile]
12 | 40 | 2180 | CC(C)(C)N1CCC(n2cc([C@@H](Nc3cc(Cl)c4ncc(C#N)c(NCc5ccccc5Cl)c4c3)c3ccccc3)nn2)CC1 [Example 616, (S)-6-(((1-(1-(tert-butyl)piperidin-4-yl)-1H-1,2,3-triazol-4-yl)(phenyl)methyl)amino)-8-chloro-4-((2-chlorobenzyl)amino)quinoline-3-carbonitrile]
13 | 43 | 12300 | CC(C)(C)N1CCC(n2cc([C@@H](Nc3cc(Cl)c4ncc(C#N)c(NCc5cccc(F)c5F)c4c3)c3ccccc3)nn2)CC1 [Example 617, (S)-6-(((1-(1-(tert-butyl)piperidin-4-yl)-1H-1,2,3-triazol-4-yl)(phenyl)methyl)amino)-8-chloro-4-((2,3-difluorobenzyl)amino)quinoline-3-carbonitrile]
14 | 53 | 1700 | CC(C)(C)N1CCC(n2cc([C@@H](Nc3cc(Cl)c4ncc(C#N)c(NCc5ccccc5F)c4c3)c3ccccc3)nn2)CC1 [Example 618, (S)-6-(((1-(1-(tert-butyl)piperidin-4-yl)-1H-1,2,3-triazol-4-yl)(phenyl)methyl)amino)-8-chloro-4-((2-fluorobenzyl)amino)quinoline-3-carbonitrile]
15 | 16 | 826 | C[C@@H](Nc1c(C#N)cnc2c(Cl)cc(N[C@@H](c3ccccc3)c3cn(C4CCN(C(C)(C)C)CC4)nn3)cc12)c1ccccc1F [Example 619, 6-(((S)-(1-(1-(tert-butyl)piperidin-4-yl)-1H-1,2,3-triazol-4-yl)(phenyl)methyl)amino)-8-chloro-4-(((R)-1-(2-fluorophenyl)ethyl)amino) quinoline-3-carbonitrile]
16 | 6 | 96 | CNc1cccc([C@H](Nc2cc(Cl)c3ncc(C#N)c(Nc4ccc(F)c(Cl)c4)c3c2)c2cn(C3CCN(C(C)(C)C)CC3)nn2)c1 [Example 620, (S)-6-(((1-(1-(tert-butyl)piperidin-4-yl)-1H-1,2,3-triazol-4-yl)(3-(methylamino)phenyl)methyl)amino)-8-chloro-4-((3-chloro-4-fluorophenyl)amino)quinoline-3-carbonitrile]
17 | 2 | 112 | COC1CN(C(=O)c2cccc([C@H](Nc3cc(Cl)c4ncc(C#N)c(Nc5ccc(F)c(Cl)c5)c4c3)c3cn(C4CCN(C(C)(C)C)CC4)nn3)c2)C1 [Example 621, (S)-6-(((1-(1-(tert-butyl)piperidin-4-yl)-1H-1,2,3-triazol-4-yl)(3-(3-methoxyazetidine-1-carbonyl)phenyl)methyl)amino)-8-chloro-4-((3-chloro-4-fluorophenyl)amino)quinoline-3-carbonitrile]
18 | 5 | 851 | CN(C)C1CN(C(=O)c2cccc([C@H](Nc3cc(Cl)c4ncc(C#N)c(Nc5ccc(F)c(Cl)c5)c4c3)c3cn(C4CCN(C(C)(C)C)CC4)nn3)c2)C1 [Example 622, (S)-6-(((1-(1-(tert-butyl)piperidin-4-yl)-1H-1,2,3-triazol-4-yl)(3-(3-(dimethylamino)azetidine-1-carbonyl)phenyl)methyl)amino)-8-chloro-4-((3-chloro-4-fluorophenyl)amino)quinoline-3-carbonitrile]
19 | 1 | 90 | CC(=O)N(C)c1cccc([C@H](Nc2cc(Cl)c3ncc(C#N)c(Nc4ccc(F)c(Cl)c4)c3c2)c2cn(C3CCN(C(C)(C)C)CC3)nn2)c1 [Example 623, (S)-N-(3-((1-(1-(tert-butyl)piperidin-4-yl)-1H-1,2,3-triazol-4-yl)((8-chloro-4-((3-chloro-4-fluorophenyl)amino)-3-cyanoquinolin-6-yl)amino)methyl)phenyl)-N-methylacetamide]
20 | 3 | 266 | CC(=O)Nc1cccc([C@H](Nc2cc(Cl)c3ncc(C#N)c(Nc4ccc(F)c(Cl)c4)c3c2)c2cn(C3CCN(C(C)(C)C)CC3)nn2)c1 [Example 624, (S)-N-(3-((1-(1-(tert-butyl)piperidin-4-yl)-1H-1,2,3-triazol-4-yl)((8-chloro-4-((3-chloro-4-fluorophenyl)amino)-3-cyanoquinolin-6-yl)amino)methyl)phenyl)acetamide]
21 | 116 | 1160 | N#Cc1cnc2c(Cl)cc(N[C@@H](c3ccccc3)c3cn(C4CCN(C5COC5)CC4)nn3)cc2c1Nc1ccc(Cl)c(Cl)c1F [Example 625, (S)-8-chloro-4-((3,4-dichloro-2-fluorophenyl)amino)-6-(((1-(1-(oxetan-3-yl)piperidin-4-yl)-1H-1,2,3-triazol-4-yl)(phenyl)methyl)amino) quinoline-3-carbonitrile]
22 | 784 | > 50000 | CC[C@@H](Nc1c(C#N)cnc2c(Cl)cc(N[C@H](c3ccccc3)c3c[nH]nn3)cc12)c1ccccc1 [Example 626, 8-chloro-6-(((R)-phenyl(1H-1,2,3-triazol-4-yl)methyl)amino)-4-(((R)-1-phenylpropyl)amino) quinoline-3-carbonitrile]
